Measurements taken from PMC5681660, “Reduced hepatitis B and D viral entry using clinically applied drugs as novel inhibitors of the bile acid transporter NTCP” (Scientific Reports, 2017).
Where a name gives a salt, the structure may show the parent alone.

Assays:
[1] = molecular target: T1, human NTCP (Homo sapiens, UniProt Q14973); assay: Screening taurocholate uptake assay (96-well, [14C]taurocholate, 10 µM drug); conditions: for B-score functional assay: 10 µM drug
T1 sequence (Q14973 1-349): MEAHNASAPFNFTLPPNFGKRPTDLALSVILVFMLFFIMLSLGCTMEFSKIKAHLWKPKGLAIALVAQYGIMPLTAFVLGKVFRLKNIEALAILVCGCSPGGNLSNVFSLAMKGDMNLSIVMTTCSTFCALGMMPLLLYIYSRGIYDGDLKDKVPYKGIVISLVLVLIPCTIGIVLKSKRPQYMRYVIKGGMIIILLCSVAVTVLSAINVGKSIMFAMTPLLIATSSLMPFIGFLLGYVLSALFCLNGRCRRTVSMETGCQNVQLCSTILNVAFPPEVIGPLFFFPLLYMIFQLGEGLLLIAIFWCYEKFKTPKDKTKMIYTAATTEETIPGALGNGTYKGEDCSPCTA

[2] = molecular target: T1, human NTCP; assay: Screening fluorescent competitive Myrcludex B-FITC binding assay (96-well, 10 µM drug); conditions: 10 µM drug
[3] = Prestwick library screen, taurocholate uptake
[4] = ranking score beside the functional and binding assay B-scores of the screen
[5] = Prestwick library screen, Myrcludex B-FITC binding
[6] = combined ranking from functional and binding screening assays
[7] = screen, Myrcludex B-FITC binding
[8] = Prestwick library screen, B-score of taurocholate uptake
[9] = combined ranking from functional and binding assay B-scores
[10] = Prestwick library screen, B-score of Myrcludex B-FITC binding

Row | Structure (SMILES) | B-score functional assay [1, 3] | Ranking score [1, 4] | B-score binding assay [2, 5] | B-score functional assay [1, 8] | Ranking score [1, 9] | B-score binding assay [2, 10] | also measured
1 | CCC1(c2ccccc2)NC(=O)N(C)C1=O (stereo not drawn) [Mephenytoin] | 0.862 | 812.389 | 0 |  |  |  | 
2 | CCCNC(C)(C)COC(=O)c1ccccc1 [Meprylcaine hydrochloride] |  |  |  |  |  |  | Ranking score [1, 6]: 382.481; B-score functional assay ([1]; screen, taurocholate uptake): 0.763; B-score binding assay [2, 7]: -1.608
3 | S=c1[nH]cnc2nc[nH]c12 [Mercaptopurine] |  |  |  |  |  |  | Ranking score [1, 6]: 451.727; B-score functional assay ([1]; screen, taurocholate uptake): -0.084; B-score binding assay [2, 7]: -0.534
4 | C[C@@H](O)[C@H]1C(=O)N2C(C(=O)O)=C(S[C@@H]3CN[C@H](C(=O)N(C)C)C3)[C@H](C)[C@H]12 [Meropenem] |  |  |  | 0.4 | 900.139 | 0.55 | 
5 | Nc1ccc(O)c(C(=O)O)c1 [Mesalamine] | -0.331 | 739.887 | 2.828 |  |  |  | 
6 | CN1CCCCC1CCN1c2ccccc2Sc2ccc([S+](C)[O-])cc21 (stereo not drawn) [Mesoridazine besylate] |  |  |  | 2.438 | 892.285 | 0.002 | 
7 | CN(C)C(=N)N=C(N)N [Metformin hydrochloride] | -0.092 | 761.884 | 1.144 |  |  |  | 
8 | CC(=O)/N=c1/sc(S(N)(=O)=O)nn1C [Methazolamide] |  |  |  | 2.368 | 849.129 | -0.041 | 
9 | C1N2CN3CN1CN(C2)C3 [Methenamine] |  |  |  | 1.472 | 906.386 | 0.067 | 
10 | Cn1cc[nH]c1=S [Methimazole] |  |  |  | 0.936 | 1068.39 | 1.226 | 
11 | CSc1ccc2c(c1)C(N1CCN(C)CC1)Cc1ccccc1S2.O=C(O)/C=C\C(=O)O (stereo not drawn) [Methiothepin maleate] |  |  |  |  |  |  | Ranking score [1, 6]: 441.5; B-score functional assay ([1]; screen, taurocholate uptake): 4.841; B-score binding assay [2, 7]: -1.545
12 | CN(Cc1cnc2nc(N)nc(N)c2n1)c1ccc(C(=O)N[C@@H](CCC(=O)O)C(=O)O)cc1 [Methotrexate] | 0.045 | 661.494 | -0.007 |  |  |  | 
13 | COc1ccc2c(c1)N(C[C@H](C)CN(C)C)c1ccccc1S2.O=C(O)/C=C\C(=O)O [Methotrimeprazine maleat salt] | 1.773 | 734.211 | -0.27 |  |  |  | 
14 | C[N+]1(C)[C@@H]2CC[C@H]1C[C@@H](OC(=O)C(CO)c1ccccc1)C2 (stereo partly drawn) [Methylatropine nitrate] |  |  |  |  |  |  | Ranking score [1, 6]: 357.004; B-score functional assay ([1]; screen, taurocholate uptake): -0.076; B-score binding assay [2, 7]: -1.066
15 | C[C@](N)(Cc1ccc(O)c(O)c1)C(=O)O [Methyldopa (L,-)] | 1.009 | 793.128 | -0.046 |  |  |  | 
16 | CCOC(=O)[C@@](C)(N)Cc1ccc(O)c(O)c1 [Methyldopate hydrochloride] |  |  |  | 0.673 | 1088.5 | 2.397 | 
17 | CC[C@@H](CO)NC(=O)[C@@H]1C=C2c3cccc4[nH]cc(c34)C[C@H]2N(C)C1 [Methylergometrine maleate] |  |  |  | 0.963 | 1029.08 | 0.851 | 
18 | C[C@H]1NC(=O)NC1=O [Methylhydantoin-5-(D)] |  |  |  |  |  |  | Ranking score [1, 6]: 290.241; B-score functional assay ([1]; screen, taurocholate uptake): 0.047; B-score binding assay [2, 7]: -1.862
19 | CC1NC(=O)NC1=O (stereo not drawn) [Methylhydantoin-5-(L)] | 0.737 | 746.749 | -0.07 |  |  |  | 
20 | C[C@H]1C[C@@H]2[C@H]([C@@H](O)C[C@@]3(C)[C@H]2CC[C@]3(O)C(=O)CO)[C@@]2(C)C=CC(=O)C=C12 [Methylprednisolone, 6-alpha] |  |  |  | 0.477 | 941.018 | 0.779 | 
21 | Cc1cc2c(cc1S(N)(=O)=O)S(=O)(=O)CCC2 [Meticrane] |  |  |  | 3.166 | 878.911 | -0.016 | 
